Measured values: patent publication US20240180160A1, “ANTIVIRAL POLYMER MATERIAL” (VALE BROTHERS LIMITED, priority 2021, published 2024)
Read-outs that look alike come from different tables or passages of the source.

Assays:
CRFK cells = assay: Cytotoxicity control on the titration cells; settings: 0.7% Formaldehyde, neutralised
Protocol: (§1) In addition, the formaldehyde cytotoxicity of neutralised formaldehyde is determined to measure assay sensitivity.
(§2) TCID50 was determined by the method of Karber (1Kärber, G.: Beitrag zur Kollektiven Behandlung Pharmakologischer Reihenversuche. Arch. Exp. Path. Pharmak. 162 (1931): 480-487.). Test virus suspension has at least a concentration which allows the determination of a 4 log10 reduction of the virus titre. The number of infectious virus particles is quantified by using the Median Tissue Culture Infectious Dose (TCID50) assay. The assay works by adding a serial dilution of the virus sample to cells in a 96 well plate format. The type of cell is specifically selected to show a cytopathic effect (CPE), i.e. morphological changes upon infection with the virus or cell death. After an incubation period, the cells are inspected for CPE or cell death and each well is classified as infected or not infected. Colorimetric or fluorometric readouts are also possible, which can increase assay sensitivity. The dilution, at which 50% of the wells show a CPE, is used to calculate the TCID50 of the virus sample. This calculation can generally be done by a variety of mathematical approaches, e.g., the Spearman-Karber method or the Reed-Muench method. Virus quantity is expressed as TCID50/ml.

[1] = system: Feline coronavirus ATCC VR-989; settings: 0.7% Formaldehyde
Protocol: as §1, §2

SMILES: C=O [Formaldehyde, formaldehyde]
- Cytotoxicity TCID50/ml (CRFK cells): 3.16E+02 TCID50/ml
- Cytotoxicity log (TCID50/ml) (CRFK cells): 2.50 log
- TCID50/ml (recovered virus) ([1]; exposure time 30 mins): 3.16E+02 TCID50/ml
- log (TCID50/ml) ([1]; exposure time 30 mins): 2.50 log
- log difference ([1]; exposure time 30 mins): 3.17 log
- TCID50/ml (recovered virus) ([1]; exposure time 60 mins): 3.16E+02 TCID50/ml
- log (TCID50/ml) ([1]; exposure time 60 mins): 2.50 log
- log difference ([1]; exposure time 60 mins): 3.17 log
